Measured values reported in patent US12268661B2, “Methods of treating ascites” (Martin Pharmaceuticals, Inc., priority 2019, dated 2025).
Where two headings read alike, the source gives them in different places.

Tests used:
RA patients = settings: small cohort of RA patients (Funasaki 1999); cited from earlier work
[1] = Dopamine levels after oral administration of docarpamine in non-Asian versus Asian populations; format: in vivo, human; settings: non-Asian (especially Caucasian) compared to Asian (especially Japanese) populations
[2] = system: cirrhotic patients with refractory ascites; test: Open-label, single-arm clinical study of docarpamine in cirrhotic subjects with refractory ascites; format: in vivo, human
Method: An open-label, single-arm study in which each subject serves as his/her own control is conducted. The study assesses the effect of DCP treatment on ascites formation in cirrhotic subjects with RA, by examining the frequency of LVP and the volume of ascitic fluid drained. All subjects participate in a 90-day open-label treatment period. […] Ascites history (relevant medications, LVP dates, and volume of drained fluid) for the 90 days prior to treatment and the 90 days after treatment are collected and used for comparison with on-treatment frequency and volume. The study population consists of cirrhotic patients between 18 and 70 years of age, inclusive, with refractory ascites, subject to the following inclusion and exclusion criteria. • Patients 18 years to 70 years of age. • Documented cirrhosis of the liver. • Refractory ascites, defined as ascites not manageable with diuretics and diet restriction, managed with periodic large volume therapeutic paracentesis. • Patients must have therapeutic […] 3 days prior to enrollment and a documented minimum of 3 additional therapeutic […] 90 days prior to enrollment, with at least 1 every 30 days. • Outpatient, with expected survival of at least 6 months. • Willing and able to complete an informed consent form. […] Results

patients with RA = settings: cited from earlier work
[3] = oral administration, high rates of metabolism in gut/small intestine and liver, cited from earlier work
[4] = system: dopamine receptors, beta1 adrenoceptors, alpha-adrenoceptors; settings: cited from earlier work
[5] = dopamine 2 ug/kg/min, patients with RA (Lin 1998)

In the case of CCOC(=O)Oc1ccc(CCNC(=O)[C@H](CCSC)NC(C)=O)cc1OC(=O)OCC [docarpamine], the “efficacy in refractory ascites” value (RA patients) is listed as “effective”, the “variability in the resulting dopamine levels” value [1] is listed as “high degree of variability” and the “dose groups in which effects are observed” value ([2]; 750 mg 3 times per day (2250 mg) versus 1500 mg 3 times per day (4500 mg), 90 days) is listed as “only in the high dose (4500 mg per day group)”. For the same compound, the “time without requiring LVP” value ([2]; 1500 mg 3 times per day (4500 mg per day), 90 days treatment) was “Some patients do not require LVP for more than one month and others do not require LVP for more than two months”, the “renin and/or aldosterone levels” value ([2]; 4500 mg per day group, 90 days) was “reduced, in some cases to normal, in many patients” and the “sodium excretion and other markers of renal function” value ([2]; 4500 mg per day group, 90 days) was “Increased sodium excretion and other markers of improved renal function respond positively”. The “frequency of LVP and/or volume of ascites removed over 90 days” value ([2]; 4500 mg per day group, 90 days, versus own history) was “reduced by more than half on average”, the urinary output ([2]; 4500 mg per day group, most patients, from 500-1000 ml before, 'or more') was 1500 to 2000 mL and the “response (need for LVP)” value ([2]; some patients, 2250 mg per day in combination with diuretics (furosemide and/or spironolactone)) was “enhanced response (decreased need for LVP)”.
In the case of NCCc1ccc(O)c(O)c1 [dopamine], the GFR (patients with RA; dopamine 1.5 ug/kg/min (Bacq 1991)) is listed as “did not enhance”, the “urine volume and GFR” value (patients with RA; dopamine 2 ug/kg/min (Espiritu 1972)) is listed as “non-significant increases” and the “changes of blood urea nitrogen, creatinine, creatinine clearance, blood pressure, pulse rate, serum sodium, serum aldosterone and GFR” value (patients with RA; [5]) is listed as “no difference”. The “effective renal plasma flow” value (patients with RA; [5]) was “Positive effects”, the GFR (patients with RA; dopamine 200 ug/min) was “did not significantly change” and the “urine volume, urine sodium or GFR” value (patients with RA; dopamine 1.3-3 ug/kg/min (Barnardo 1970)) was “did not change”. The oral bioavailability [3] was “not orally bioavailable”, the oral bioavailability ([3]; listed as Dopamine) was “not bioavailable when administered orally” and the “effect at low rates of infusion” value ([4]; 0.5-2 mcg/kg/min, renal, mesenteric, coronary, intracerebral vascular beds) was “vasodilation”. The “effect at intermediate rates of infusion” value ([4]; 2-10 mcg/kg/min, beta1 adrenoceptor stimulation) was “improved myocardial contractility, increased sino-atrial rate and enhanced impulse conduction in the heart”, the “effect at higher rates of infusion” value ([4]; 10-20 mcg/kg/min, alpha-adrenoceptors) was “vasoconstrictor effects and a rise in blood pressure” and the “effect at very high rates of infusion” value ([4]; above 20 mcg/kg/min, alpha-adrenoceptor stimulation predominates) was “reversing renal dilation and natriuresis”. The “effect when administered intravenously” value ([4]; intravenous) was “natriuretic and positive inotropic effects”.
In the case of Oc1ccc(C2CNCCc3c2cc(O)c(O)c3Cl)cc1 (centres unmarked) [fenoldopam], the “urine volume or urine sodium” value (patients with RA; Hadengue 1991) is listed as “failed to increase”.
